According to ChEMBL document CHEMBL1201862, “PubChem BioAssay data set” (2004):
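Cultured in 96-well plates, cells were exposed to test compound for 48 hours across five concentrations. At the GI50, growth is halved.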 The source made the active and inactive calls. Rule as the data show it: active = GI50 up to about 1.1 µM and inactive = higher.

Key:
Experiment in all cases: NCI-60 cell line screen, 48 h
KM-20L2 = tested on: KM-20L2
SK-MEL-28 = tested on: SK-MEL-28
SNB-75 = tested on: SNB-75
SF-539 = tested on: SF-539
RXF 393 = tested on: RXF 393
HT-29 = tested on: HT-29
SK-MEL-5 = tested on: SK-MEL-5
HOP-18 = tested on: HOP-18
SR = tested on: SR
SF-295 = tested on: SF-295
CCRF-CEM = tested on: CCRF-CEM
HOP-62 = tested on: HOP-62
SW-620 = tested on: SW-620
SN12C = tested on: SN12C
LXFL 529 = tested on: LXFL 529
TK-10 = tested on: TK-10
UACC-257 = tested on: UACC-257
NCI-H226 = tested on: NCI-H226
Malme-3M = tested on: Malme-3M
NCI-H23 = tested on: NCI-H23
U-251 = tested on: U-251
HL-60 = tested on: HL-60
SF-268 = tested on: SF-268
OVCAR-5 = tested on: OVCAR-5
HCC 2998 = tested on: HCC 2998
RPMI-8226 = tested on: RPMI-8226
OVCAR-8 = tested on: OVCAR-8
DMS-114 = tested on: DMS-114
SNB-19 = tested on: SNB-19
OVCAR-3 = tested on: OVCAR-3
HCT-15 = tested on: HCT-15
OVCAR-4 = tested on: OVCAR-4
UO-31 = tested on: UO-31
ACHN = tested on: ACHN
DMS-273 = tested on: DMS-273
HCT-116 = tested on: HCT-116
SK-MEL-2 = tested on: SK-MEL-2
EKVX = tested on: EKVX
K562 = tested on: K562
IGROV-1 = tested on: IGROV-1
NCI-H460 = tested on: NCI-H460
KM12 = tested on: KM12
DLD-1 = tested on: DLD-1
MOLT-4 = tested on: MOLT-4
COLO 205 = tested on: COLO 205
HOP-92 = tested on: HOP-92
LOX IMVI = tested on: LOX IMVI
A498 = tested on: A498
M14 = tested on: M14
M19-MEL = tested on: M19-MEL
SK-OV-3 = tested on: SK-OV-3
SNB-78 = tested on: SNB-78
UACC-62 = tested on: UACC-62
A549 = tested on: A549
XF498 = tested on: XF498
CAKI-1 = tested on: CAKI-1
786-0 = tested on: 786-0

## COc1ccc(Sc2ccccc2N)cc1
KM-20L2
  GI50: 52.6 µM (inactive)
SK-MEL-28
  GI50: 43.4 µM (inactive)
SNB-75
  GI50: 19.6 µM (inactive)
SF-539
  GI50: 29.6 µM (inactive)
RXF 393
  GI50: 25.5 µM (inactive)
HT-29
  GI50: 23.3 µM (inactive)
SK-MEL-5
  GI50: 22.3 µM (inactive)
HOP-18
  GI50: > 100 µM (inactive)
SR
  GI50: 22.8 µM (inactive)
SF-295
  GI50: 39.3 µM (inactive)
CCRF-CEM
  GI50: 14.4 µM (inactive)
HOP-62
  GI50: 65.9 µM (inactive)
SW-620
  GI50: 57.1 µM (inactive)
SN12C
  GI50: 33.1 µM (inactive)
LXFL 529
  GI50: 41 µM (inactive)
TK-10
  GI50: > 100 µM (inactive)
UACC-257
  GI50: 38.5 µM (inactive)
NCI-H226
  GI50: 22.7 µM (inactive)
Malme-3M
  GI50: 57.8 µM (inactive)
NCI-H23
  GI50: 43.6 µM (inactive)
U-251
  GI50: 19 µM (inactive)
HL-60
  GI50: 18.8 µM (inactive)
SF-268
  GI50: 43.1 µM (inactive)
OVCAR-5
  GI50: 46.5 µM (inactive)
HCC 2998
  GI50: 41 µM (inactive)
RPMI-8226
  GI50: 45.9 µM (inactive)
OVCAR-8
  GI50: 60.5 µM (inactive)
DMS-114
  GI50: 29.8 µM (inactive)
SNB-19
  GI50: > 100 µM (inactive)
OVCAR-3
  GI50: 29.1 µM (inactive)
HCT-15
  GI50: 37 µM
OVCAR-4
  GI50: 34.8 µM (inactive)
UO-31
  GI50: 21.8 µM (inactive)
ACHN
  GI50: 56.8 µM (inactive)
DMS-273
  GI50: 30.6 µM (inactive)
HCT-116
  GI50: 49 µM (inactive)
SK-MEL-2
  GI50: > 100 µM (inactive)
EKVX
  GI50: 53.7 µM (inactive)
K562
  GI50: 41.6 µM (inactive)
IGROV-1
  GI50: 65.2 µM (inactive)
NCI-H460
  GI50: 52.5 µM (inactive)
KM12
  GI50: 41.3 µM (inactive)
DLD-1
  GI50: 43.5 µM (inactive)
MOLT-4
  GI50: 26.9 µM (inactive)
COLO 205
  GI50: 17 µM (inactive)
HOP-92
  GI50: 21.1 µM (inactive)
LOX IMVI
  GI50: 64 µM (inactive)
A498
  GI50: > 100 µM (inactive)
M14
  GI50: 35.8 µM (inactive)
M19-MEL
  GI50: 36.7 µM (inactive)
SK-OV-3
  GI50: > 100 µM (inactive)
SNB-78
  GI50: 37.8 µM (inactive)
UACC-62
  GI50: 71.4 µM (inactive)
A549
  GI50: 55 µM (inactive)
XF498
  GI50: 0.162 µM (active)

## CC(C)(C)C1CCC2c3c([nH]c4ccccc34)C3C(=O)N(c4ccc(Br)cc4)C(=O)C3C2C1 (configuration not stated)
KM-20L2
  GI50: 15.1 µM (inactive)
SK-MEL-28
  GI50: 48.2 µM (inactive)
SNB-75
  GI50: 19.5 µM (inactive)
SF-539
  GI50: 21.1 µM (inactive)
HT-29
  GI50: 17.3 µM (inactive)
SK-MEL-5
  GI50: 25.8 µM (inactive)
HOP-18
  GI50: 52.4 µM (inactive)
SF-295
  GI50: 25 µM (inactive)
CCRF-CEM
  GI50: 16.7 µM (inactive)
HOP-62
  GI50: 21.6 µM (inactive)
SW-620
  GI50: 19.8 µM (inactive)
SN12C
  GI50: 11.4 µM (inactive)
LXFL 529
  GI50: 21.7 µM (inactive)
TK-10
  GI50: 20.5 µM (inactive)
UACC-257
  GI50: 17.8 µM (inactive)
NCI-H226
  GI50: 18.7 µM (inactive)
Malme-3M
  GI50: 33.9 µM (inactive)
NCI-H23
  GI50: 18.8 µM (inactive)
HL-60
  GI50: 13.3 µM (inactive)
SF-268
  GI50: 24.5 µM (inactive)
OVCAR-5
  GI50: 23.6 µM (inactive)
HCC 2998
  GI50: < 0.01 µM (active)
RPMI-8226
  GI50: 17.1 µM (inactive)
OVCAR-8
  GI50: 21.7 µM (inactive)
DMS-114
  GI50: 19 µM (inactive)
SNB-19
  GI50: 16.9 µM (inactive)
HCT-15
  GI50: 13.7 µM
OVCAR-4
  GI50: 16.9 µM (inactive)
UO-31
  GI50: 14.2 µM (inactive)
ACHN
  GI50: 17.7 µM (inactive)
CAKI-1
  GI50: 19.9 µM (inactive)
DMS-273
  GI50: 17.1 µM (inactive)
HCT-116
  GI50: 32.9 µM (inactive)
SK-MEL-2
  GI50: 19 µM (inactive)
786-0
  GI50: 21.6 µM (inactive)
EKVX
  GI50: 22 µM (inactive)
K562
  GI50: 15.7 µM (inactive)
IGROV-1
  GI50: 21.1 µM (inactive)
NCI-H460
  GI50: 17.7 µM (inactive)
KM12
  GI50: 22.3 µM (inactive)
DLD-1
  GI50: 41.4 µM (inactive)
MOLT-4
  GI50: 9.64 µM (inactive)
COLO 205
  GI50: 11.1 µM (inactive)
HOP-92
  GI50: 24.3 µM (inactive)
LOX IMVI
  GI50: 15.7 µM (inactive)
A498
  GI50: 28.6 µM (inactive)
M14
  GI50: 26.1 µM (inactive)
M19-MEL
  GI50: 16.8 µM (inactive)
SNB-78
  GI50: 26.4 µM (inactive)
UACC-62
  GI50: 26.9 µM (inactive)
A549
  GI50: 17.7 µM (inactive)
XF498
  GI50: 38.4 µM (inactive)
